Assay results: ChEMBL document CHEMBL1121629, “1-(Aminoalkyl)-6-aryl-4-H-s-triazolo[4,3-a][1,4]benzodiazepines with antianxiety and antidepressant activity” (1980)

Key:
Format in all cases: functional
Mus musculus [1] = organism: Mus musculus; assay: Tested for antagonism of pentylenetetrazole-induced clonic convulsions (P) in mice
Mus musculus [2] = organism: Mus musculus; assay: Tested for potentiation of gamma-butyrolactone induced sleep (gamma-B) in mice
Mus musculus [3] = organism: Mus musculus; assay: Tested for antagonism of oxotremorine hypothermia (OX) in mice
Mus musculus [4] = organism: Mus musculus; assay: Tested for antagonism of bicuculline-induced tonic-extensor convulsions (B) in mice
Mus musculus [5] = organism: Mus musculus; assay: Prolongation of hypoxic survival time (HS) in mice
Mus musculus [6] = organism: Mus musculus; assay: Tested for potentiation of yohimbine toxicity in aggregated mice(Y)
Mus musculus [7] = organism: Mus musculus; assay: Tested for stereotyped gnawing and licking behavior of mice pretreated with apomorphine (AG)
Mus musculus [8] = organism: Mus musculus; assay: Tested for antagonism of nicotine-induced tonic extensor convulsions (TE) in mice
Mus musculus [9] = organism: Mus musculus; assay: Tested for antagonism of nicotine-induced death (D) in mice

Structure (SMILES) | ED50 (Mus musculus [1]) [mg/kg] | ED50 (Mus musculus [2]) [mg/kg] | ED50 (Mus musculus [3]) [mg/kg] | ED50 (Mus musculus [4]) [mg/kg] | ED50 (Mus musculus [5]) [mg/kg] | ED50 (Mus musculus [6]) [mg/kg] | ED50 (Mus musculus [7]) [mg/kg] | ED50 (Mus musculus [8]) [mg/kg] | ED50 (Mus musculus [9]) [mg/kg]
CN(C)CCc1nnc2n1-c1ccc(Br)cc1C(c1ccccn1)=NC2 | 20 | 10 | 4 | > 50 | > 50 | 4 | 9 | – | –
CN(C)CCc1nnc2n1-c1ccc(Br)cc1C(c1ccccc1)=NC2 | 5 | 5 | 0.9 | 7 | 5 | 3 | > 50 | – | –
C#CCN(C)Cc1nnc2n1-c1ccccc1C(c1ccccc1Cl)=NC2 | 2 | 8 | > 50 | 2 | 3 | > 50 | > 50 | – | –
CCN(CC)CCc1nnc2n1-c1ccc(Cl)cc1C(c1ccccc1)=NC2 | 25 | 15 | 42 | > 50 | 40 | > 50 | > 50 | 2 | 2
CC(N)Cc1nnc2n1-c1ccc(Br)cc1C(c1ccccn1)=NC2 (stereo not drawn) | > 50 | 40 | > 50 | > 50 | > 50 | 7 | 20 | – | –
CN(C)Cc1nnc2n1-c1ccc(Cl)cc1/C(c1ccccc1)=N\CC2 | > 50 | 15 | > 50 | > 50 | – | > 50 | > 50 | > 100 | –
CN1CCN(Cc2nnc3n2-c2ccc(Cl)cc2C(c2ccccc2)=NC3)CC1 | 100 | 20 | > 100 | 100 | 50 | > 100 | > 100 | 4.5 | 5
CN(C)OCc1nnc2n1-c1ccc(Cl)cc1C(c1ccccc1)=NC2 | 0.2 | 0.1 | > 50 | 0.2 | > 0.2 | > 50 | > 50 | – | –
CN(C)CCc1nnc2cc(-c3ccccc3)c3cc(Cl)ccc3n12 | > 50 | > 50 | > 50 | > 50 | – | 40 | > 50 | – | –
CN(C)CCc1nnc2n1-c1ccccc1C(c1ccccc1)=NC2 | > 50 | 30 | 10 | > 50 | > 50 | 40 | 20 | – | –
CC(N)Cc1nnc2n1-c1ccccc1C(c1ccccc1Cl)=NC2 (stereo not drawn) | > 50 | > 50 | > 50 | > 50 | 10 | 20 | > 50 | – | –
CN(C)CCCc1nnc2n1-c1ccc(Cl)cc1C(c1ccccc1Cl)=NC2 | 2.2 | 0.2 | 25 | 2.6 | 2.2 | 25 | > 50 | – | –
CCN(CC)Cc1nnc2n1-c1ccc(Cl)cc1C(c1ccccc1)=NC2 | 3.1 | 0.6 | – | 2.6 | > 50 | – | – | 0.08 | 0.08
Clc1ccc2c(c1)C(c1ccccc1)=NCc1nnc(CN3CCN(c4ccccc4)CC3)n1-2 | > 30 | > 30 | > 30 | > 30 | > 50 | > 30 | > 30 | 159 | 159
Clc1ccc2c(c1)C(c1ccccc1)=NCc1nnc(CCCN3CCCC3)n1-2 | 4.4 | 35.4 | > 50 | > 50 | > 50 | 42 | 25 | 14 | 16
NCCc1nnc2n1-c1ccc(Br)cc1C(c1ccccc1)=NC2 | > 50 | 30 | 7 | 20 | > 50 | 20 | > 50 | – | –
C[N+](C)([O-])Cc1nnc2n1-c1ccc(Cl)cc1C(c1ccccc1)=NC2 | 0.3 | 0.6 | 5.3 | 0.8 | 5.3 | > 50 | > 50 | – | –
CSc1ccc2c(c1)C(c1ccccc1)=NCc1nnc(CN(C)C)n1-2 | 9 | 10 | 10 | 10 | > 50 | 40 | > 50 | – | –
CN(C)Cc1nnc2n1-c1ccc(Cl)cc1C(c1ccccc1)=NC2 [ADINAZOLAM] | 0.9 | 1.6 | – | 0.7 | 5 | – | – | – | 0.13
CN(C)CCCN1c2ccccc2CCc2ccccc21 [IMIPRAMINE] | – | – | 1.3 | 21 | > 50 | – | 0.9 | 7 | 7
